Measured values taken from article PMC9103596, “The inhibitory effect of boric acid on hypoxia-regulated tumour-associated carbonic anhydrase IX” (Journal of Enzyme Inhibition and Medicinal Chemistry, 2022).
Like-named read-outs stand apart in the source and are kept apart here.

How the values were obtained:
[1] = tested on: androgen-sensitive LNCaP prostate cancer cells; conditions: nude mice injected with LNCaP cells, treated with BA; cited from earlier work
[2] = tested on: CA IX levels in HT29 cells; conditions: treated at IC50 concentration for 24 h, ELISA
Procedure: Cells were incubated at 37 °C and 5% CO2 in 25cm[3] flasks. On reaching 80–90% confluence, cell harvesting was performed by washing cells in phosphate-buffered saline (PBS) and then detached from the flask surface using trypsin-EDTA. Cell count was determined using a hematocytometer. Two separate cultures each for both HT29 and A375 were grown, one under normoxic conditions and the second one under hypoxic conditions. The normoxic cultures for HT29 and A375 were grown and incubated at normoxic conditions (37 °C and 5% CO2). […] The hypoxic chamber was placed in a 37 °C incubator for 4 h. Hypoxia conditions were confirmed by detecting HIF-1α protein level by using an ELISA kit (Shangai Koon, Shanghai, China).
HT29 and A375 cells were seeded 0.3 × 10^6 cells/well into two separate six-well plates. On each well-plate, one column was treated with BA, the second was treated with AZA, and the third column was left untreated, serving as a control. […] The plates were then set aside to incubate for 24 h under normoxic conditions (37 °C and 5% CO2).
The lysates were collected by centrifugation at 13,000 × g for 15 min at 4 °C. […] These protein levels were determined by using CA IX ELISA kit and HIF1α ELISA kit according to the manufacturer’s instructions. […] Of 50 µL of the stop solution was then added and the microplates were read at 450 nm using the Epoch micro-plate reader (BioTek, Cambridge, MA).

[3] = molecular target: hCA XII (Homo sapiens, UniProt O43570); conditions: read-out: KI hCA XII; stopped-flow CO2 hydrase assay, mean from three assays
hCA XII, sequence (O43570 25-354): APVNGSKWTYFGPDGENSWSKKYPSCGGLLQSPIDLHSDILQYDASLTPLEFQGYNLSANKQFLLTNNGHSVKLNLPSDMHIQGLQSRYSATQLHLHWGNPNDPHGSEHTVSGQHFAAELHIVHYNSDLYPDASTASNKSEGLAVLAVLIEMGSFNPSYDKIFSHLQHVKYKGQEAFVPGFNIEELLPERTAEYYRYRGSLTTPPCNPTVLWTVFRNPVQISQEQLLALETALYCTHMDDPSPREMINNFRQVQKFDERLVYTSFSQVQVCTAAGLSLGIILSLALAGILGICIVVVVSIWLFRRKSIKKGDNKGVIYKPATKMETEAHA
Procedure: (§1) The uncatalysed rates were determined in the same manner and subtracted from the total observed rates. Stock solutions of BA (or other inhibitors) (100 mM) were prepared in distilled – deionised water, and dilutions up to 0.01 nM were done thereafter with the assay buffer. Inhibitor and enzyme solutions were preincubated together for 6 h at room temperature prior to assay in order to allow for the formation of the E–I complex. The inhibition constants were obtained by nonlinear least-squares methods using PRISM 3 and the Cheng–Prusoff equation, as reported earlier, and represent the mean from at least three different determinations.

[4] = molecular target: hCA II (Homo sapiens, UniProt P00918); conditions: read-out: KI hCA II; stopped-flow CO2 hydrase assay, mean from three assays
Procedure: as §1

[5] = molecular target: hCA I (Homo sapiens, UniProt P00915); conditions: read-out: KI hCA I; stopped-flow CO2 hydrase assay, mean from three assays
hCA I, sequence (P00915 whole entry): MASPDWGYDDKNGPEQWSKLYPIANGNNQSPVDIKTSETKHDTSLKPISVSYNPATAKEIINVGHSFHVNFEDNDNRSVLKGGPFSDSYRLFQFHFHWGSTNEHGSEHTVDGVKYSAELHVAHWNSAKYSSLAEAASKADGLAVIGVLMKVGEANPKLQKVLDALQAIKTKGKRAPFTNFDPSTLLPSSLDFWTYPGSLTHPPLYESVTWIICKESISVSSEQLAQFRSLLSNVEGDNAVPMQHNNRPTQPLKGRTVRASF
Procedure: as §1

[6] = molecular target: hCA IX (Homo sapiens, UniProt Q16790); conditions: read-out: KI hCA IX
Procedure: as §1

[7] = tested on: CA IX levels in A375 cells; conditions: treated at IC50 concentration for 24 h, ELISA
Procedure: (§2) Cells were incubated at 37 °C and 5% CO2 in 25cm[3] flasks. On reaching 80–90% confluence, cell harvesting was performed by washing cells in phosphate-buffered saline (PBS) and then detached from the flask surface using trypsin-EDTA. Cell count was determined using a hematocytometer. Two separate cultures each for both HT29 and A375 were grown, one under normoxic conditions and the second one under hypoxic conditions. The normoxic cultures for HT29 and A375 were grown and incubated at normoxic conditions (37 °C and 5% CO2). […] The hypoxic chamber was placed in a 37 °C incubator for 4 h.
(§3) WST-1 reagent was used to measure mitochondrial dehydrogenase activity and determine cell viability. A 0.5 M stock of B(OH)3 was prepared by dissolving 0.309 g of B(OH)3 in 10 ml of distilled water. HT29 and A375 cells were seeded on 96-well plates and incubated for 24 h, allowing them to adhere to the wells before treatment with B(OH)3. Cells were then treated with 2.5, 5, 10, 25 50, 100, and 200 mM B(OH)3 and topped to 100 µL with a prepared cell medium (one well remaining as an untreated, negative control). The plates were then incubated for 24 and 48 h periods. After each period, […] WST-1 reagent was added to each well and then the plate was incubated for another 3–4 h at 37 °C with 5% CO2. The plates were read by using an Epoch microplate reader (BioTek, Cambridge, MA) with a wavelength of 450 nm. The results were analysed by using GraphPad Prism version 9 (Graphpad Software Inc., La Jolla, CA), for determining the IC50 values, with AZA as standard CA inhibitor. HT29 and A375 cells were seeded 0.3 × 10^6 cells/well into two separate six-well plates. On each well-plate, one column was treated with BA, the second was treated with AZA, and the third column was left untreated, serving as a control.

[8] = tested on: HT29 (human colon cancer) cells; conditions: read-out: IC50 cell viability
Procedure: as §2, §3

[9] = tested on: A375 (human malignant melanoma) cells; conditions: read-out: IC50 cell viability; A375, WST-1, 48 h
Procedure: as §2, §3

Compound: OB(O)O [Boric acid]
- decrease in plasma PSA levels [1]: 88%
- decrease in tumour growth [1]: 25 − 35%
- CA IX levels compared to control ([2]; HT29 hypoxic cell cultures): increase
- CA IX levels compared to control ([2]; HT29 normoxic cell cultures): slight increase
- Ki [3]: 6.2 mM
- Ki [4]: 41 mM
- Ki [5]: 29.9 mM
- Ki [6]: 2.8 mM
- CA IX levels compared to control ([7]; A375 hypoxic cell cultures): significantly reduced
- CA IX levels compared to control ([7]; A375 normoxic cell cultures): significantly reduced
- IC50 ([8]; HT29, WST-1, 24 h): 19.6 mM
- IC50 ([8]; HT29, WST-1, 48 h): 23 mM
- IC50 [9]: 15.5 mM
